Data on two substances can be found in PMC6105163, “Abaloparatide Exerts Bone Anabolic Effects with Less Stimulation of Bone Resorption-Related Factors: A Comparison with Teriparatide” (Calcified Tissue International, 2018).

What is called EC50 is the concentration at which the effect is half-maximal. Read a high EC50 as a less potent agent.

Test [1] relates to SaOS-2. Description: Bone formation-related factor gene expression (qRT-PCR). The class given is cell-based, human. To be noted: for IGF-1 gene expression / osteocalcin gene expression: 100 nmol/L once daily 11 days, 6-h exposure per 24-h cycle (Fig. 3b), n = 3; for IGF-1 and osteocalcin expression, continuous treatment: data not shown. As to the method: SaOS-2 was cultured in 12-well plates at a density of 2 × 10^5 cells/well in DM. Concomitant with the initiation of cell differentiation, cells were treated with 100 nmol/L of ABL and TPTD once daily for 11 days. The peptide exposure was limited to the first 6 h of the 24-h incubation cycle, and the medium was replaced with peptide-free medium for the rest of the cycle after washing with PBS twice.
(§1) Cells were lysed and total RNA was extracted using an RNeasy Mini Kit (Qiagen, Valencia, CA, USA). RNA was reverse-transcribed into cDNA using the SuperScript III First-Strand Synthesis System for RT-PCR (Invitrogen, Carlsbad, CA, USA). Quantitative RT-PCR was performed on a 7500 Real-Time PCR System (Applied Biosystems) using Power SYBR Green PCR Master Mix (Thermo Fisher Scientific, Waltham, MA, USA). The primers used in this study were as follows: 5′-CGATGGTGGATGGCTCATG-3′ (forward) and 5′-ACCAGATGGGATGTCGGTG-3′ (reverse) for RANKL, 5′-[…]-3′ (forward) and 5′-[…]-3′ (reverse) for M-CSF, 5′-[…]-3′ (forward) and 5′-[…]-3′ (reverse) for OPG, 5′-[…]-3′ (forward) and 5′-[…]-3′ (reverse) for IGF1, 5′-[…]-3′ (forward) and 5′-[…]-3′ (reverse) for osteocalcin, 5′-[…]-3′ (forward) and 5′-[…]-3′ (reverse) for DMP1, 5′-[…]-3′ (forward) and 5′-[…]-3′ (reverse) for SOST, 5′-[…]-3′ (forward) and 5′-[…]-3′ (reverse) for DKK1, 5′-GTGAAGGTCGGAGTCAACG-3′ (forward) and 5′-TGAGGTCAATGAAGGGGTC-3′ (reverse) for GAPDH.
A general note: In qPCR the cycle at which signal appears reflects the starting amount.

For test [2], the system named is human osteoblastic cell line SaOS-2. Description: cAMP accumulation assay in SaOS-2. The class given is cell-based. To be noted: for cAMP accumulation, in words: SaOS-2, 10 min (Fig. 1a), n = 3 replicate wells; for EC50 / Emax, cAMP accumulation: SaOS-2, 10 min, 2 mmol/L 3-isobutyl-1-methylxanthine, mean ± s.e.m., three independent experiments, each triplicate; for EC50: cAMP-Screen System, P = 0.13 ABL vs TPTD; for Emax, cAMP accumulation: P = 0.96 ABL vs TPTD. Here is the method: (§2) The human osteoblastic cell line SaOS-2 and the rat osteoblastic cell line UMR-106 were purchased from the European Collection of Cell Cultures (Wiltshire, UK). SaOS-2 and UMR-106 were maintained in growth medium (GM): McCoy’s 5A (for SaOS-2) or Dulbecco’s Modified Eagle’s Medium (for UMR-106) supplemented with 10% FBS and 1% penicillin/streptomycin at 37 °C with 5% CO2. To initiate cell differentiation, cells were grown in differentiation medium (DM): GM containing 50 µg/mL ascorbic acid, 10 mmol/L β-glycerophosphate, and 10 nmol/L dexamethasone. The culture medium was exchanged every 6 days or less.
(§3) Cells were cultured in 96-well plates at a density of 4 × 10^4 cells/well in GM overnight. The medium was replaced with serum-free GM (containing 0.1% BSA instead of 10% FBS) for culture under starvation conditions. Twenty-four hours after the start of starvation, ABL, TPTD, or vehicle (water containing 0.1% BSA) were added to the cells with 2 mmol/L of 3-isobutyl-1-methylxanthine for 10 min. Cells were lysed and accumulated cAMP was measured using the cAMP-Screen System (Applied Biosystems, Waltham, MA, USA) according to the manufacturer’s instructions.
(§4) All data are expressed as means ± s.e.m. For calculation of EC50 and Emax, 4-parameter logistic curve fitting was performed. Student’s t test was used for two-group comparisons. Dunnett’s or Tukey’s test was used for multiple comparisons. Significance was inferred from P values of < 0.05. All data were analyzed using GraphPad Prism version 6.03 (GraphPad Software, La Jolla, CA, USA).
On the technique in general: Cyclic AMP is a second messenger, typically raised through Gs and lowered through Gi signalling.

Test [3] concerns SaOS-2. The experiment in a line: Bone resorption-related factor gene expression (qRT-PCR). The class given is cell-based, human. To be noted: 100 nmol/L; for M-CSF mRNA expression / OPG mRNA expression / RANKL mRNA expression / RANKL/OPG mRNA expression: continuous treatment (Fig. 2b); for expression of bone resorption-related factors such as RANKL/OPG and M-CSF: human osteoblastic cells. Here is the method: (§5) SaOS-2 was cultured in 48-well plates at a density of 5 × 10^4 cells/well in DM for 10 days. The medium was replaced with serum-free DM for culture under starvation conditions. Twenty-four hours after the start of starvation, cells were treated with ABL and TPTD at a concentration of 100 nmol/L. Six hours after treatment, cells were washed with PBS twice, and cultured with peptide-free or peptide-containing medium for the rest of the experimental period.
as §1

The subject of test [4] is OVX rats. The experiment in a line: L4 vertebral bone strength in OVX rats. The class given is in vivo, Sprague–Dawley rats (female). The settings on record: once daily s.c. for 28 days, day 28, vs OVX, n = 8 or 9. The text has this: Ten-week-old female Sprague–Dawley rats were purchased from Charles River Laboratories Japan, Inc. (Kanagawa, Japan) and ovariectomized at 12 weeks old. Thirty-five days after surgery, rats received once daily subcutaneous injection of ABL, TPTD, or vehicle (saline containing 0.1% heat-inactivated rat serum) for 28 days. Day 0 indicates the day when administration was started. On day 26, rats were anesthetized with intraperitoneally administered pentobarbital sodium and the lumbar spine (L4 and L5) BMD was measured with a PIXImus2 (GE Healthcare, Chicago, IL). Blood (collected from the tail vein) and urine samples were obtained on day 28. Prior to collection, rats were fasted for 15–17 h. Rats were euthanized after the blood and urine collection, and the lumbar spine was removed for the measurement of bone strength. All experimental procedures were approved by the Animal Care and Use Committee of Teijin Institute for Bio-Medical Research.
L4 was isolated from the lumbar spine. The height of the vertebral body was measured with a vernier caliper. To obtain vertebral body specimens, the cranial and caudal ends of the vertebral body were cut with a diamond saw to a height of 4 mm. Bone strength was measured with a MZ-500S (MARUTO Testing Machine Company, Tokyo, Japan).

In test [5] the test system is SaOS-2. Description: M-CSF protein secretion (ELISA). Format: cell-based, human. The settings on record: 100 nmol/L, n = 3; for M-CSF protein secretion: continuous treatment (Fig. 2c), ABL and TPTD did not differ significantly. Here is the method: as §5
Human Quantikine M-CSF, Sclerostin, and DKK1 ELISA kits (R&D Systems, Minneapolis, MN, USA) were used to quantify M-CSF, sclerostin, and DKK1, respectively, in the cell supernatants according to the manufacturer’s instructions.
(In general: ELISA stands for enzyme-linked immunosorbent assay.)

The subject of test [6] is PTH1R. The settings on record: ref [22]; cited from earlier work. An excerpt: It is unclear why ABL stimulates lower expression of bone resorption-related factors than TPTD with transient treatment only. Recently, it was reported that PTH1R has at least two types of active conformations and that the binding conformation selectivity differs between ABL and TPTD [21, 22]. This difference further affects the duration of the downstream signaling. […] We therefore thought that the difference in bone resorption-related factors could arise from the d ...

Test [7] has as its system rat osteoblastic cell line UMR-106. The experiment in a line: cAMP accumulation assay in UMR-106. The class given is cell-based. The settings on record: for cAMP accumulation, in words: UMR-106, 10 min (Fig. 1b), n = 3 replicate wells; for EC50 / Emax, cAMP accumulation: UMR-106, 10 min, 2 mmol/L 3-isobutyl-1-methylxanthine, mean ± s.e.m., three independent experiments, each triplicate; for EC50: P = 0.0067 ABL vs TPTD; for Emax, cAMP accumulation: P = 0.84 ABL vs TPTD. As to the method: as §2, §3, §4

Consider human PTH(1–34) [Teriparatide], for which, in test [1], the IGF-1 gene expression entry is recorded as “increased”; the osteocalcin gene expression entry is “increased”; the “IGF-1 and osteocalcin expression, continuous treatment” value is reported as “could hardly detect”. Also, in test [2], the “cAMP accumulation, in words” value was “dose-dependently increased cAMP”; the midpoint of the response, the EC50, lay at 3.9 ± 0.5 nM; the “Emax, cAMP accumulation” value came to 22.0 ± 1.5 nmol/L. Also, in test [3] (n = 3), the “M-CSF mRNA expression” value is on record as “similarly promoted”, the “OPG mRNA expression” value was “inhibited”, the “RANKL mRNA expression” value was “similarly promoted” and the “RANKL/OPG mRNA expression” value is “similarly promoted”. Besides, the “expression of bone resorption-related factors such as RANKL/OPG and M-CSF” value in test [3] was “increased”. In addition, the “lumbar spine (L4) bone strength” value in test [4] was “significantly increased”. Further, the M-CSF protein secretion entry in test [5] is “increased”. In test [6], the “duration of cAMP production after wash-out of unbound ligand” value is “sustained after the unbound ligand is washed out”. Besides, in test [7], the “cAMP accumulation, in words” value is “dose-dependently increased cAMP”; the EC50 was determined as 1.18 ± 0.06 nM; the “Emax, cAMP accumulation” value worked out at 271.4 ± 25.0 nmol/L.

In the case of “[Glu^22,25, Leu^23,28,31, Aib^29, Lys^26,30] human PTHrP(1–34)–NH2 [Abaloparatide]”, in test [1], the IGF-1 gene expression entry is listed as “increased”; the osteocalcin gene expression entry is reported as “increased”; the “IGF-1 and osteocalcin expression, continuous treatment” value was “could hardly detect”. Moreover, the “IGF-1 and osteocalcin effects, ABL vs TPTD” value in test [1] (100 nmol/L, repeating 6-h exposure cycle, 11 days (Fig. 3b)) is “not significantly different”. Further, in test [2], the “cAMP accumulation, in words” value is on record as “dose-dependently increased cAMP”; the EC50 was 5.1 ± 0.4 nM; the “Emax, cAMP accumulation” value is on record as 21.9 ± 1.4 nmol/L. In addition, the “EC50 and Emax of ABL compared with TPTD” value in test [2] (SaOS-2, Table 1) is listed as “no significant differences”. Moreover, in test [3] (n = 3), the “M-CSF mRNA expression” value is “similarly promoted”, the “OPG mRNA expression” value is “inhibited”, the “RANKL mRNA expression” value was “similarly promoted” and the “RANKL/OPG mRNA expression” value was “similarly promoted”. Also, in test [3] (transient 6-h treatment), the “M-CSF expression, ABL vs TPTD” value is listed as “less than TPTD” and the “RANKL/OPG expression, ABL vs TPTD” value is “less than TPTD”. Moreover, the “bone resorption-related factors mRNA, ABL vs TPTD” value in test [3] (transient treatment (first 6 h, then washed out) (Fig. 2d), n = 3) is “significantly attenuated as compared with TPTD”. Further, in test [3], the “expression of bone resorption-related factors such as RANKL/OPG and M-CSF” value is “increased”. In addition, in test [4], the “lumbar spine (L4) bone strength” value is given as “significantly increased”. Moreover, in test [5], the M-CSF protein secretion result was “increased”. In addition, the “M-CSF protein secretion, ABL vs TPTD” value in test [5] (transient treatment (first 6 h) (Fig. 2e)) is “significantly less with ABL treatment than with TPTD”. Further, the “duration of cAMP production after wash-out of unbound ligand” value in test [6] was “transient”. In test [7], the “cAMP accumulation, in words” value is given as “dose-dependently increased cAMP”; the midpoint of the response, the EC50, lay at 0.84 ± 0.03 nM; the “Emax, cAMP accumulation” value came to 278.4 ± 20.8 nmol/L.
